Results from ChEMBL document CHEMBL5154648, “Antitumor activity of novel POLA1-HDAC11 dual inhibitors” (Eur J Med Chem, 2022).
The source made the active and inactive calls. The calls are words filed in the database; no cut-off is given here.

Columns and labels:
[1] = Antiproliferative activity against human MM432 cells incubated for 24 hrs followed by incubating in drug-free medium for 48 hrs and measured by SRB assay; type: functional, cell-based
[2] = Antiproliferative activity against human U-87 MG cells incubated for 24 hrs followed by incubating in drug-free medium for 48 hrs and measured by SRB assay; type: functional, cell-based, U-87MG ATCC
A2780 = assay: Antiproliferative activity against human A2780 cells incubated for 24 hrs followed by incubating in drug-free medium for 48 hrs and measured by SRB assay; type: functional, cell-based
NCI-H460 = assay: Antiproliferative activity against human NCI-H460 cells incubated for 24 hrs followed by incubating in drug-free medium for 48 hrs and measured by SRB assay; type: functional, cell-based
U2932 = assay: Antiproliferative activity against human U2932 cells incubated for 24 hrs followed by incubating in drug-free medium for 48 hrs and measured by SRB assay; type: functional, cell-based
[3] = Resistance index, ratio of IC50 for human A2780 cells to IC50 for A2780-DX cells; type: functional
[4] = Antiproliferative activity against human H460-R9A cells incubated for 24 hrs followed by incubating in drug-free medium for 48 hrs and measured by SRB assay; type: functional, cell-based
Z-138 = assay: Antiproliferative activity against human Z138 cells incubated for 24 hrs followed by incubating in drug-free medium for 48 hrs and measured by SRB assay; type: functional, cell-based
Ramos = assay: Antiproliferative activity against human Ramos cells incubated for 24 hrs followed by incubating in drug-free medium for 48 hrs and measured by SRB assay; type: functional, cell-based
L-428 = assay: Antiproliferative activity against human L-428 cells incubated for 24 hrs followed by incubating in drug-free medium for 48 hrs and measured by SRB assay; type: functional, cell-based
Histone deacetylase 11 = molecular target: T1, Histone deacetylase 11 (Homo sapiens, UniProt Q96DB2); assay: Inhibition of HDAC11 (unknown origin) using fluorogenic peptide 382 RHKK(Ac)AM as substrate and measured by fluorescence assay
T1 sequence (Q96DB2 whole entry): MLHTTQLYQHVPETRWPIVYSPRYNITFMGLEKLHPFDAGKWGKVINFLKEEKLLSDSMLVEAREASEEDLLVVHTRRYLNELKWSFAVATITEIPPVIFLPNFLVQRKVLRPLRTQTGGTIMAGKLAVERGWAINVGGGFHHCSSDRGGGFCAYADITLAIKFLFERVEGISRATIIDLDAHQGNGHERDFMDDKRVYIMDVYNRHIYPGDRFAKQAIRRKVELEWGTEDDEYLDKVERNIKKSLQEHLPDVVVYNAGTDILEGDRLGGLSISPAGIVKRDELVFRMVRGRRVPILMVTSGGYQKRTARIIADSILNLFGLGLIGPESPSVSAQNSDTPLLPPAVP

[5] = Resistance index, ratio of IC50 for human NCI-H460 cells to IC50 for H460-R9A cells; type: functional
MM473 = assay: Antiproliferative activity against human MM473 cells incubated for 24 hrs followed by incubating in drug-free medium for 48 hrs and measured by SRB assay; type: functional, cell-based
THP-1 = assay: Antiproliferative activity against human THP-1 cells incubated for 24 hrs followed by incubating in drug-free medium for 48 hrs and measured by SRB assay; type: functional, cell-based
MDA-MB-436 = assay: Antiproliferative activity against human MDA-MB-436 cells incubated for 24 hrs followed by incubating in drug-free medium for 48 hrs and measured by SRB assay; type: functional, cell-based
NB-4 = assay: Antiproliferative activity against human NB-4 cells incubated for 24 hrs followed by incubating in drug-free medium for 48 hrs and measured by SRB assay; type: functional, cell-based
[6] = Antiproliferative activity against human MM487 cells incubated for 24 hrs followed by incubating in drug-free medium for 48 hrs and measured by SRB assay; type: functional, cell-based
[7] = Antiproliferative activity against multi-drug resistant human A2780-DX cells incubated for 24 hrs followed by incubating in drug-free medium for 48 hrs and measured by SRB assay; type: functional, cell-based
[8] = molecular target: T2, DNA polymerase alpha catalytic subunit (Homo sapiens) (UniProt P09884); assay: Inhibition of POLA1 in human NCI-H460 cells at 0.1 to 0.4 uM assessed as upregulation of p21 expression and measured by Western blot analysis; type: cell-based; details: dose 0.1-0.4 µM
T2 sequence (whole entry): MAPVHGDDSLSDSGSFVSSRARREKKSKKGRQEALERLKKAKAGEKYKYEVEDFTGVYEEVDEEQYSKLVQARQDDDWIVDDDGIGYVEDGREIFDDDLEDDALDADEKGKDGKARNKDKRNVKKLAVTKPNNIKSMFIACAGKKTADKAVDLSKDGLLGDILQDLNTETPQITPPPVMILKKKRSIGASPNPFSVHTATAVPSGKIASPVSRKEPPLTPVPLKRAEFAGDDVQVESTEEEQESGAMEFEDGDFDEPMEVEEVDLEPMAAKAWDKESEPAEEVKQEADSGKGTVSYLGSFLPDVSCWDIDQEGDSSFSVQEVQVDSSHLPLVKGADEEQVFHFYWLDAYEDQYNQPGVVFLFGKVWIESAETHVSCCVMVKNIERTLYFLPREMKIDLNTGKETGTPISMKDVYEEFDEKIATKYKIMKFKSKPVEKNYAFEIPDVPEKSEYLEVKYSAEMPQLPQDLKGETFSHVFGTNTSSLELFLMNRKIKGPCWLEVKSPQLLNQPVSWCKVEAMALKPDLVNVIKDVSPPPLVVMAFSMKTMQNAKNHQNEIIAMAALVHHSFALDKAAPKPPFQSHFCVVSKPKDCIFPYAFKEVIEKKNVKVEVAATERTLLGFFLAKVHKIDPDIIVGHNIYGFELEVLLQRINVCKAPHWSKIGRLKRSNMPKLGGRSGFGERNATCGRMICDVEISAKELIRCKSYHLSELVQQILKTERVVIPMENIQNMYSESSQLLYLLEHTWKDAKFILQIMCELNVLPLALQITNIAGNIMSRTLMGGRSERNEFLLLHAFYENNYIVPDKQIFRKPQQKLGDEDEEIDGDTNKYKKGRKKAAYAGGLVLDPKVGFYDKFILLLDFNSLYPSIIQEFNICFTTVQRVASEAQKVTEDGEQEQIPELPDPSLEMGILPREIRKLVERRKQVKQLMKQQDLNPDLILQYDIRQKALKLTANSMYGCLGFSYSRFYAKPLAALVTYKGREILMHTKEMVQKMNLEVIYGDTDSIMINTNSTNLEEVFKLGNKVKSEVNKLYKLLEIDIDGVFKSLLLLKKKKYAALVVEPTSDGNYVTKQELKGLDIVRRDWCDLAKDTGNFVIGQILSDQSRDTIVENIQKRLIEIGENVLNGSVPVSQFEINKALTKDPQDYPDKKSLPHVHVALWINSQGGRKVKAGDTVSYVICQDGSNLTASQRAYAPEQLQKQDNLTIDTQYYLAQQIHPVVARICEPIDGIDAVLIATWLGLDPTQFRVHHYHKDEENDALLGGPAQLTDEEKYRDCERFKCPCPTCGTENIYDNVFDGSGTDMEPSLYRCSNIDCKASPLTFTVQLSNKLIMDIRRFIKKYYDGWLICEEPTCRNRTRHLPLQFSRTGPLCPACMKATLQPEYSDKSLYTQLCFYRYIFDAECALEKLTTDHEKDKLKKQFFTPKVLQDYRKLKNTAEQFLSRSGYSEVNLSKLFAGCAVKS

In the case of `O=C(O)C=Cc1ccc(-c2ccc(OCC(=O)NO)c(C34CC5CC(CC(C5)C3)C4)c2)cc1`, the IC50 [1] is reported as 900 nM, the IC50 [2] is reported as 1100 nM and the IC50 (A2780) is reported as 600 nM. For the same compound, the IC50 (NCI-H460) was 250 nM, the IC50 (U2932) was 520 nM and the “Ratio IC50” value [3] was 0.7. For the same compound, the IC50 [4] was 2800 nM, the IC50 (Z-138) was 38 nM and the IC50 (Ramos) was 710 nM. The IC50 (L-428) was 2100 nM, the IC50 (Histone deacetylase 11) was 6090 nM and the “Ratio IC50” value [5] was 11.2. For the same compound, the IC50 (MM473) was 12000 nM, the IC50 (THP-1) was 420 nM and the IC50 (MDA-MB-436) was 640 nM. It also gave an IC50 (NB-4) of 180 nM, an IC50 [6] of 22000 nM and an IC50 [7] of 410 nM. For the same compound, the inhibition [8] was “Active”.

With `O=C(O)C=Cc1ccc(-c2ccc(O)c(C34CC5CC(CC(C5)C3)C4)c2)cc1` the IC50 [1] was 430 nM, the IC50 [2] was 530 nM and the IC50 (A2780) was 98 nM. For the same compound, the IC50 (NCI-H460) was 120 nM, the IC50 (U2932) was 77 nM and the “Ratio IC50” value [3] was 1.7. It also gave an IC50 [4] of 8400 nM, an IC50 (Z-138) of 26 nM and an IC50 (Ramos) of 290 nM. The IC50 (L-428) was 450 nM, the IC50 (Histone deacetylase 11) was over 10000 nM and the “Ratio IC50” value [5] was 70. The IC50 (MM473) was 600 nM, the IC50 (THP-1) was 150 nM and the IC50 (MDA-MB-436) was 550 nM. For the same compound, the IC50 (NB-4) was 100 nM, the IC50 [6] was 100 nM and the IC50 [7] was 170 nM. The inhibition [8] was “Active”.

`CC(Oc1ccc(-c2ccc(C=CC(=O)O)cc2)cc1C12CC3CC(CC(C3)C1)C2)C(=O)NO` (configuration not stated) showed an IC50 [1] of 1400 nM, an IC50 [2] of 1000 nM and an IC50 (A2780) of 950 nM. For the same compound, the IC50 (NCI-H460) was 260 nM, the IC50 (U2932) was 770 nM and the “Ratio IC50” value [3] was 0.7. It also gave an IC50 [4] of 2200 nM, an IC50 (Z-138) of 160 nM and an IC50 (Ramos) of 1200 nM. The IC50 (L-428) was 3200 nM, the IC50 (Histone deacetylase 11) was 8230 nM and the “Ratio IC50” value [5] was 8.5. The IC50 (MM473) was 1400 nM, the IC50 (THP-1) was 520 nM and the IC50 (MDA-MB-436) was 770 nM. For the same compound, the IC50 (NB-4) was 230 nM, the IC50 [6] was 730 nM and the IC50 [7] was 660 nM. The inhibition [8] was “Active”.
